Laboratory results as given in patent publication US20230203041A1, “ANTAGONISTS OF THE ADENOSINE A2A RECEPTOR” (AdoRx Therapeutics Limited, priority 2020, published 2023).

Key:
human PBMCs = experiment: CD3/CD28 stimulated IL-2 release NECA reversal assay in human PBMCs; format: cell-based; details: PBMC, CD3/CD28 antibody stimulated, 1 uM NECA, 24 hours, IL-2 in culture supernatant;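 note: dose-response as % inhibition where 100% equals no-NECA control wells with CD3/CD28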
Protocol: Blood is drawn from healthy volunteers using sodium citrate as the anticoagulant (0.3% final concentration). After centrifugation of the blood over Histopaque-1077, PBMCs are collected from the Histopaque/plasma interface and washed twice in PBS (300 g for 10 mins at room temp). Cells are plated at 50,000 cells/well in 150 μl RPMI/10% FCS in 96-well cell culture plates that have been precoated with 1 ug/ml CD3 antibody. 50 μl diluted compound mix is added to the cells, to obtain final concentrations of 1 ug/ml CD28 antibody, 1 uM NECA and 0.003-10 μM adenosine receptor antagonist. Assay plates are incubated for 24 hours at 37° C. in a humidified incubator. Culture supernatant is tested for IL-2 levels using the human IL-2 Tissue Culture Kit (Meso Scale Discovery).

[1] = molecular target: T1, human Adenosine A2a receptor (Homo sapiens, UniProt P29274); experiment: Adenosine receptor TR-FRET binding assay (CA200645 displacement), A2a; details: 100 nM CA200645, CHO cell membranes, 2 hours at room temperature
T1 construct: expressed in transfected cells; host or cells: CHO cell membranes
Protocol: (§1) All FRET binding experiments were conducted at room temperature in white 384-well plates, in assay binding buffer containing 1×LabMed (Cisbio, France), 100 μg/mL saponin, 1% DMSO and 0.02% pluronic acid. Binding of the fluorescently labelled Adenosine receptor antagonist XAC (CA200645, FRET acceptor) to terbium-labelled A1, A2a, A2b and A3 adenosine receptors (FRET donors) was detected by time-resolved FRET due to the close proximity of the donor and acceptor in a binding event. To investigate the ability of unlabelled test compounds to bind to Adenosine A1, A2a, A2b and A3 receptors, dose response curves were constructed that determined the ability of a range of concentrations to inhibit the binding of 30 nM CA200645 to the A2b receptor and 100 nM CA200645 to the A1, A2a, and A3 receptor.
(§2) Serial dilution (1:3 dilutions) of test compounds in neat DMSO and transfer of a 400 nL sample of test compound into the assay plate was carried out using the Mosquito (TTP Labtech, UK). The compound samples were incubated for 2 hours at room temperature with a fixed concentration of CA200645 defined for each receptor (see above) and CHO cell membranes containing the human Adenosine A1 (0.5 μg/well), A2a (0.3 μg/well), A2b (1 μg/well) or A3 (1 μg/well) receptor in 40 μL of assay buffer. Total and non-specific binding of CA200645 was determined in the absence and presence of 10 μM XAC, respectively. Following 2 hours incubation, the level of CA200645 binding was detected on a Pherastar FSX (BMG Labtech, Germany) using standard TR-FRET settings. The terbium donor was excited with three laser flashes at a wavelength of 337 nm, and donor and acceptor emission was detected at 620 nm and 665 nm wavelengths, respectively. FRET ratios were obtained by multiplying the acceptor/donor ratio value by 10,000. Specific binding was determined by subtracting the non-specific binding FRET ratio from the total binding FRET ratio. Compound IC50 curves were analysed using GraphPad Prism 7.0 (GraphPad, USA) and Ki affinity values were determined from the obtained IC50 values using the method of Cheng and Prusoff.

[2] = molecular target: T2, human Adenosine A2b receptor (Homo sapiens, UniProt P29275); experiment: Adenosine receptor TR-FRET binding assay (CA200645 displacement), A2b; details: 30 nM CA200645, CHO cell membranes, 2 hours at room temperature
T2 construct: expressed in transfected cells; host or cells: CHO cell membranes
T2 sequence (P29275 1-332): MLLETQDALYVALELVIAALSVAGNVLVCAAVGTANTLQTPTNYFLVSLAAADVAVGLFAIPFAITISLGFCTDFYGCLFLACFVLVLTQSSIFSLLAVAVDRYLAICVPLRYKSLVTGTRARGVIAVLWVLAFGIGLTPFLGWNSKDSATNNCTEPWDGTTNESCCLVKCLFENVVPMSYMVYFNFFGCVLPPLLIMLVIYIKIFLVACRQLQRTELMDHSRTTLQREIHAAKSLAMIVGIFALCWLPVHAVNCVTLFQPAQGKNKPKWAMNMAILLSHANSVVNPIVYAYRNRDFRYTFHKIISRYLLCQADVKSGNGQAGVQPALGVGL

[3] = molecular target: T3, human Adenosine A3 receptor (Homo sapiens, UniProt P0DMS8); experiment: Adenosine receptor TR-FRET binding assay (CA200645 displacement), A3
T3 sequence (P0DMS8 1-318): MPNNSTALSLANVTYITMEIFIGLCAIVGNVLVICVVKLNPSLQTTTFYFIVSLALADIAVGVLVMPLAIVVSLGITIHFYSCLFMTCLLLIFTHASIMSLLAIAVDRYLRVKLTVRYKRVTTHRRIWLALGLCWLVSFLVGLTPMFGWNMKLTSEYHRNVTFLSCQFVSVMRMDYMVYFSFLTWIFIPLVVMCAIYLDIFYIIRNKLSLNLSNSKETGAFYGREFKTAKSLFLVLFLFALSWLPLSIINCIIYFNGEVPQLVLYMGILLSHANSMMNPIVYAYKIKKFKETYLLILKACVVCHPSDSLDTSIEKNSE
Protocol: as §1, §2

[4] = test system: CD8+ T cells in human whole blood; experiment: Measurement of pCREB in CD8+ T cells in human whole blood; format: cell-based; details: T-cell, 1 h; heparinised human whole blood, rolipram, 3 μM NECA, 60 min, phospho-CREB in CD8+ T cells by FACS
Protocol: Heparinised human whole blood was pre-incubated at 37° C. with serial dilutions of A2a antagonists for 20 min. and the phosphodiesterase inhibitor rolipram to amplify the pCREB response. The adenosine receptor agonist NECA is then added at a final concentration of 3 μM and following a 60 min incubation the blood is fixed and red blood cells lysed. White blood cells are isolated, permeabilized and stained with directly conjugated fluorescent antibodies to phospho-CREB (Alexa Fluor 488) and CD8 (Alexa Fluor 647) and the level of phospho-CREB in CD8+ T cells is measured by FACS using a BD Accuri C6 Flow Cytometer.

[5] = molecular target: T4, human Adenosine A1 receptor (Homo sapiens, UniProt P30542); experiment: Adenosine receptor TR-FRET binding assay (CA200645 displacement), A1
T4 sequence (P30542 1-326): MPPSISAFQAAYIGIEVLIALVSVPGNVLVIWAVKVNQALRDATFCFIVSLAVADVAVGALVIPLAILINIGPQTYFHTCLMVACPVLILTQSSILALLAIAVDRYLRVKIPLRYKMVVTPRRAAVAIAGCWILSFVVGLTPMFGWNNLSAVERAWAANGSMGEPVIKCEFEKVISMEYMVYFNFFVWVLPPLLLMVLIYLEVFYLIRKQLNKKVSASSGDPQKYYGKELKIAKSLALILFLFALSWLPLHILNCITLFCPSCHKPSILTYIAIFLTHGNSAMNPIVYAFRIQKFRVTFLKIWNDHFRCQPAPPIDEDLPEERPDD
Protocol: as §1, §2

T1 sequence (P29274 whole entry): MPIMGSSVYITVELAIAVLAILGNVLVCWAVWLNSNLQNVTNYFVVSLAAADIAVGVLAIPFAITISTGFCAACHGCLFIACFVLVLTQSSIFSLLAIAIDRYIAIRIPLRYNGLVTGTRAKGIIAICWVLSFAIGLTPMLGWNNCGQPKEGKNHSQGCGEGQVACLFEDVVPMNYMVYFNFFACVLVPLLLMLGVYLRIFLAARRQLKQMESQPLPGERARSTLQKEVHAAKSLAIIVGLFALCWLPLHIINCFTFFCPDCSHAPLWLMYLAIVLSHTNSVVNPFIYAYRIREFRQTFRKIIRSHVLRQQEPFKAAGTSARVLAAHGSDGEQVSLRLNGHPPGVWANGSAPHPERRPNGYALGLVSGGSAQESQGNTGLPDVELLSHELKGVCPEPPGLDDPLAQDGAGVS

SMILES	Ki [1] [nM]	Ki [2] [nM]	Ki [3] [nM]	IC50 [4] [nM]	Ki [5] [nM]	IC50 (human PBMCs) [nM]
COc1cc(-c2c(-c3cccc(C#N)c3)nn3ccc(N)nc23)cc(C)n1 [Example 26.2, 3-[5-Amino-3-(2-methoxy-6-methyl-4-pyridyl)pyrazolo[1,5-a]pyrimidin-2-yl]benzonitrile]	6.2	18	2520	2540	123	69
Cc1cc(-c2c(-c3cccc(C#N)c3)nn3ccc(N[C@H]4C[C@@H](O)C4)nc23)cc(Cl)n1 [Example 2.10]	1.4	10	1550	1190	119	48
Cc1cc(-c2c(-c3cccc(C#N)c3)nn3ccc(C(=N)N)nc23)cc(C)n1 [Example 97, 2-(3-Cyanophenyl)-3-(2,6-dimethyl-4-pyridyl)pyrazolo[1,5-a]pyrimidine-5-carboxamidine]	1.5	21	> 1000	580	260	38
Cc1cc(-c2c(-c3cccc(C#N)c3)nn3ccc(N4CC5CCC(C4)O5)nc23)cc(Cl)n1 [Example 2.12]	1.5	22	2330	4190	87	32
Cc1cc(-c2c(-c3cccc(C#N)c3)nn3ccc(NC(=O)C(C)(C)O)nc23)cc(C)n1 [Example 94.5, N-[2-(3-cyanophenyl)-3-(2,6-dimethyl-4-pyridyl)pyrazolo[1,5-a]pyrimidin-5-yl]-2-hydroxy-2-methyl-propanamide]	3.7	20	> 1000	590	145	16
Cc1cc(-c2c(-c3cccc(C#N)c3)nn3ccc(N[C@@H](C)C(C)(C)O)nc23)cc(Cl)n1 [Example 2.15]	2	239	> 1000	920	896	59
Cc1cc(-c2c(-c3cccc(C#N)c3)nn3ccc(N4CCOC(CCN(C)C)C4)nc23)cc(Cl)n1 (stereo not drawn) [Example 2.21]	4.6	19	> 1000	1240	178	31
Cc1cc(-c2c(-c3cccc(C#N)c3)nn3ccc(N[C@@H]4CCCNC4)nc23)cc(Cl)n1 [Example 4.2]	1.2	34	> 1000	2030	32	54
Cc1cc(-c2c(-c3cccc(C#N)c3)nn3ccc(C(=O)N(C)CC(C)(C)O)nc23)cc(Cl)n1 [Example 6.18, 3-(2-Chloro-6-methyl-4-pyridyl)-2-(3-cyanophenyl)-N-(2-hydroxy-2-methyl-propyl)-N-methyl-pyrazolo[1,5-a]pyrimidine-5-carboxamide]	4.2	13	> 1000	1690	125	93
Cc1cc(-c2c(-c3cccc(C#N)c3)nn3ccc(N)nc23)cc(Cl)n1 [Example 1.4, 3-[5-Amino-3-(2-chloro-6-methyl-4-pyridyl)pyrazolo[1,5-a]pyrimidin-2-yl]benzonitrile]	2.6	4	> 1000	590	66	37
Cc1cc(-c2c(-c3cccc(C#N)c3)nn3ccc(NCC(C)(C)O)nc23)cc(C)n1 [Example 23.2]	1.9	168	> 1000	260	280	25
Cc1cc(-c2c(-c3cccc(C#N)c3)nn3ccc(C(=O)NCC4(O)COC4)nc23)cc(C)n1 [Example 92.3]	2	7	> 1000	260	212	11
Cc1cc(-c2c(-c3cccc(C#N)c3)nn3ccc(NC(=O)CC(C)(C)O)nc23)cc(C)n1 [Example 94.4, N-[2-(3-Cyanophenyl)-3-(2,6-dimethyl-4-pyridyl)pyrazolo[1,5-a]pyrimidin-5-yl]-3-hydroxy-3-methyl-butanamide]	1.7	13	> 1000	150	79	14

The next compounds have a lower Ki [1] than those just listed; values first:

Ki [1] [nM]	Ki [2] [nM]	Ki [3] [nM]	IC50 [4] [nM]	Ki [5] [nM]	SMILES	IC50 (human PBMCs) [nM]
0.8	9	> 1000	1820	296	Cc1cc(-c2c(-c3cccc(C#N)c3)nn3ccc(C(=O)NC45CC(O)(C4)C5)nc23)cc(Cl)n1 [Example 5, 3-(2-Chloro-6-methyl-4-pyridyl)-2-(3-cyanophenyl)-N-(3-hydroxy-1-bicyclo[1.1.1]pentanyl)pyrazolo[1,5-a]pyrimidine-5-carboxamide]	23
0.6	4	1280	1250	21	Cc1cc(-c2c(-c3cccc(C#N)c3)nn3ccc(N4CCOC[C@H]4C(=O)O)nc23)cc(Cl)n1 [Example 2.3]	12
0.5	7	> 1000	360	143	Cc1cc(-c2c(-c3cccc(C#N)c3)nn3ccc(C(=O)NCCC(C)(C)N)nc23)cc(C)n1 [Example 96, N-(3-Amino-3-methyl-butyl)-2-(3-cyanophenyl)-3-(2,6-dimethyl-4-pyridyl)pyrazolo[1,5-a]pyrimidine-5-carboxamide]	10
0.4	2	2450	260	56	Cc1cc(-c2c(-c3cccc(C#N)c3)nn3ccc(NCC4(O)CC4)nc23)cc(Cl)n1 [Example 3.4]	100
0.4	5	> 1000	280	143	Cc1cc(-c2c(-c3cccc(C#N)c3)nn3ccc(C(=O)NCCC(C)(C)N)nc23)cc(Cl)n1 [Example 7, N-(3-Amino-3-methyl-butyl)-3-(2-chloro-6-methyl-4-pyridyl)-2-(3-cyanophenyl)pyrazolo[1,5-a]pyrimidine-5-carboxamide]	34
0.2	1	115	1180	10	Cc1cc(-c2c(-c3cccc(C#N)c3)nn3ccc(N/C(=N\C#N)NC(C)C)nc23)cc(Cl)n1 [Example 32.1, 1-[3-(2-Chloro-6-methyl-4-pyridyl)-2-(3-cyanophenyl)pyrazolo[1,5-a]pyrimidin-5-yl]-2-cyano-3-isopropyl-guanidine]	9
0.1	16	> 1000	2860	477	Cc1cc(-c2c(-c3cccc(C#N)c3)nn3ccc(C(=O)NC(C)(C)C)nc23)cc(Cl)n1 [Example 5.1]	20
